Assay results: patent US9868720B2 (Genentech, Inc., priority 2013, dated 2018)
pKi: −log10 of the molar value.

Target: DLK kinase (N-terminally GST-tagged DLK, catalytic domain amino acid 1-520) (Homo sapiens (Human), UniProt Q12852)
Assay: DLK TR-FRET assay
Format: biochemical
Settings: 30 μM ATP, MKK4 K131M substrate, read-out: DLK HTRF (Ki)
Method: DLK TR-FRET assay: DLK kinase reactions (20 μL) containing 5 nM N-terminally GST-tagged DLK (catalytic domain amino acid 1-520) (Carna Bioscience), 40 nM N-terminally HIS-tagged MKK4 K131M substrate, and 30 μM ATP in kinase reaction buffer (50 mM HEPES, pH 7.5, 0.01% Triton X-100, 0.01% Bovine γ-Globulins, 2 mM DTT, 10 mM MgCl2 and 1 mM EGTA), and testing compound 1:3 serial diluted starting at 20 uM were incubated at ambient temperature for 60 minutes in 384 well OptiPlate (Perkin Elmer). To quench kinase reactions and detect phosphorylated MKK4, 15 μL of TR-FRET antibody mixture containing 2 nM anti-phosphorylated MKK4 labeled with Europium cryptate (Cisbio) and 23 nM anti-HIS labeled with D2 (Cisbio) in detection buffer (25 mM Tris pH 7.5, 100 mM NaCl, 100 mM EDTA, 0.01% Tween-20, and 200 mM KF) was added to the reaction mixture. The detection mixture was incubated for 3 hours at ambient temperature and the TR-FRET was detected with an EnVision multilabel plate reader (Perkin-Elmer) using the LANCE/DELFIA Dual Enh label from Perkin-Elmer (excitation filter: UV2 (TRF) 320 and emission filters: APC 665 and Europium 615).

DLK kinase (N-terminally GST-tagged DLK, catalytic domain amino acid 1-520), sequence (Q12852 1-520): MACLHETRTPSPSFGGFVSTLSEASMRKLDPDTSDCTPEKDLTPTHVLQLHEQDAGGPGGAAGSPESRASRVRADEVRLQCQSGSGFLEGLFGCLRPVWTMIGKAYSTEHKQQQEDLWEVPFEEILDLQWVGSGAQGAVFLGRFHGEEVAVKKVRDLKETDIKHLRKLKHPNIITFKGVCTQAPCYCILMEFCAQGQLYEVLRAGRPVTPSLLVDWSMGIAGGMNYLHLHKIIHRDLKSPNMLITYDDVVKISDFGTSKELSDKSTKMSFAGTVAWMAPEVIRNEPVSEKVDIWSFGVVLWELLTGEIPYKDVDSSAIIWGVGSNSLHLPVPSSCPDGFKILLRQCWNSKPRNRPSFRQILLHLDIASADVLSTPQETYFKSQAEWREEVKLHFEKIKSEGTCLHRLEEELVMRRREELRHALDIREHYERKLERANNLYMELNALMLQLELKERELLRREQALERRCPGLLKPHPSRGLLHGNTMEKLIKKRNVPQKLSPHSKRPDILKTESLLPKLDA

| Compound | pKi |
| --- | --- |
| CC1CCCN1c1nc(Nc2cc(C(F)(F)F)ccn2)cc(C2CCNCC2)n1 (stereo not drawn) [Example 65, [2-(2-Methyl-pyrrolidin-1-yl)-6-piperidin-4-yl-pyrimidin-4-yl]-(4-tri-fluoromethyl-pyridin-2-yl)-amine] | 9.13 |
| Cc1nc(Nc2cc(C(N)=O)ccn2)cc(C2CCCN(C(=O)c3ccccc3)C2)n1 (stereo not drawn) [Example 8] | 6.10 |
| Cc1ccnc(Nc2cc(C3CCCN(Cc4ccccn4)C3)nc(C)n2)c1 (stereo not drawn) [Example 56, (4-Methyl-pyridin-2-yl)-[2-methyl-6-(1-pyridin-2-ylmethyl-piperidin-3-yl)-pyrimidin-4-yl]-amine] | 6.53 |
| C[C@@H]1CCCN1c1nc(Nc2cc(C(F)(F)F)ccn2)cc(C2CCN(C)CC2)n1 [Example 169, [6-(1-Methyl-piperidin-4-yl)-2-((R)-2-methyl-pyrrolidin-1-yl)-pyrimidin-4-yl]-(4-trifluoromethyl-pyridin-2-yl)-amine] | 9.40 |
| Cc1nc(Nc2ccc(C(F)(F)F)cn2)cc(C2CCCN(C(=O)c3ccccc3)C2)n1 (stereo not drawn) | 6.16 |
| CN1CCC(c2cc(Nc3cc(C(F)(F)F)ccn3)nc(N3CCC(F)(F)C3)n2)CC1 [Example 160, [2-(3,3-Difluoro-pyrrolidin-1-yl)-6-(1-methyl-piperidin-4-yl)-pyrimidin-4-yl]-(4-trifluoromethyl-pyridin-2-yl)-amine] | 8.35 |
| CCOc1ccnc(Nc2cc(C3CCCN(C(=O)c4ccccc4)C3)nc(C)n2)c1 (stereo not drawn) [Example 21, {3-[6-(4-Ethoxy-pyridin-2-ylamino)-2-methyl-pyrimidin-4-yl]-piperidin-1-yl}-phenyl-methanone] | 7.22 |
| Cc1ccnc(Nc2cc(C3CCNCC3)nc(N3CCCC3)n2)c1 [Example 24, (4-Methyl-pyridin-2-yl)-(6-piperidin-4-yl-2-pyrrolidin-1-yl-pyrimidin-4-yl)-amine] | 7.69 |
| Cc1ccnc(Nc2cc(C3CCCN(Cc4cc(C)nn4C)C3)nc(C)n2)c1 (stereo not drawn) [Example 40, {6-[1-(2,5-Dimethyl-2H-pyrazol-3-ylmethyl)-piperidin-3-yl]-2-methyl-pyrimidin-4-yl}-(4-methyl-pyridin-2-yl)-amine] | 6.41 |
| C[C@@H]1CCCN1c1nc(Nc2cc(C3CC3)ccn2)cc(C2CCNCC2)n1 [Example 202, (4-Cyclopropyl-pyridin-2-yl)-[2-((R)-2-methyl-pyrrolidin-1-yl)-6-piperidin-4-yl-pyrimidin-4-yl]-amine] | 9.02 |
| N#CCC(=O)N1CCCC(c2cc(Nc3cc(C(F)(F)F)ccn3)nc(C3CC3)n2)C1 (stereo not drawn) [Example 173, 3-{3-[2-Cyclopropyl-6-(4-trifluoromethyl-pyridin-2-ylamino)-pyrimidin-4-yl]-piperidin-1-yl}-3-oxo-propionitrile] | 7.43 |
| CC1CC1C(=O)N1CCC(c2cc(Nc3cc(C(F)(F)F)ccn3)nc(N3CCC(F)(F)C3)n2)C1 (stereo not drawn) [Example 180] | 7.34 |
| CC1CCCN1c1nc(Nc2cc(C(F)(F)F)ccn2)cc(C2CCN(C(=O)CC#N)CC2)n1 (stereo not drawn) [Example 177, 3-{4-[2-(2-Methyl-pyrrolidin-1-yl)-6-(4-trifluoromethyl-pyridin-2-ylamino)-pyrimidin-4-3yl]-piperidin-1-yl}-3-oxo-propionitrile] | 8.10 |
| COc1cc(C)ccc1C(=O)N1CCCC(c2cc(Nc3cc(C)ccn3)nc(C)n2)C1 (stereo not drawn) [Example 7] | 7.68 |
| N#CC1(c2cc(Nc3cc(C(F)(F)F)ccn3)nc(N3CCC(F)(F)C3)n2)CCNCC1 [Example 105, 4-[2-(3,3-Difluoro-pyr-rolidin-1-yl)-6-(4-trifluoro-methyl-pyridin-2-ylamino)-pyrimidin-4-yl]-piperidine-4-carbonitrile] | 7.93 |
| O=C(C1CC1)N1CCC(c2cc(Nc3cc(C(F)(F)F)ccn3)nc(N3CCC(F)(F)C3)n2)C1 (stereo not drawn) [Example 184, Cyclopropyl-{3-[2-(3,3-difluoro-pyrrolidin-1-yl)-6-(4-trifluoromethyl-pyridin-2-ylamino)-pyrimidin-4-yl}-pyrrolidin-1-yl}-methanone] | 7.38 |
| CC(C)(C)c1ccnc(Nc2cc(C3CCNCC3)nc(N3CCC(F)(F)C3)n2)c1 [Example 200, (4-tert-Butyl-pyridin-2-yl)-[2-(3,3-difluoro-pyrrolidin-1-yl)-6-piperidin-4-yl-pyrimidin-4-yl]-amine] | 8.08 |
| Cc1ccnc(Nc2cc(C3CCCN(Cc4cn5ccccc5n4)C3)nc(C)n2)c1 (stereo not drawn) [Example 51, [6-(1-Imidazo[1,2-a]pyridin-2-ylmethyl-piperidin-3-yl)-2-methyl-pyrimidin-4-yl]-(4-methyl-pyridin-2-yl)-amine] | 6.78 |

Results, then the compound that gave them:

| pKi | Compound |
| --- | --- |
| 6.91 | CS(=O)(=O)N1CCCC(c2cc(Nc3cc(C(F)(F)F)ccn3)nc(C3CCOC3)n2)C1 (stereo not drawn) [Example 401, [6-(1-Methanesulfonyl-piperidin-3-yl)-2-(tetrahydro-furan-3-yl)-pyrimidin-4-yl]-(4-trifluoromethyl-pyridin-2-yl)-amine] |
| 6.46 | O=C(C1CN(c2nc(Nc3cc(C(F)(F)F)ccn3)cc(C3CCOCC3)n2)C1)N1CCOCC1 [Example 260, Morpholin-4-yl-{1-[4-(tetrahydro-pyran-4-yl)-6-(4-trifluoromethyl-pyridin-2-ylamino)-pyrimidin-2-yl]-azetidin-3-yl}-methanone] |
| 9.77 | COc1cc(C)ccc1C(=O)N1CCCC(c2cc(Nc3cc(C)ccn3)nc(N3CCCC3C)n2)C1 (stereo not drawn) [Example 425, (2-Methoxy-4-methyl-phenyl)-{3-[6-(4-methyl-pyridin-2-ylamino)-2-(2-methyl-pyrrolidin-1-yl)-pyrimidin-4-yl]-piperidin-1-yl}-methanone] |
| 7.33 | CN1CCC(c2cc(Nc3cc(C(F)(F)F)ccn3)nc(N3CC4CC3CO4)n2)C1 (stereo not drawn) [Example 274, [6-(1-Methyl-pyrrolidin-3-yl)-2-(2-oxa-5-aza-bicyclo[2.2.1]hept-5-yl)-pyrimidin-4-yl]-(4-trifluoromethyl-pyridin-2-yl)-amine] |
| 6.54 | FC(F)(F)c1ccnc(Nc2cc(C3CCOCC3)nc(N3CC4(COC4)C3)n2)c1 [Example 218, [2-(2-Oxa-6-aza-spiro-[3.3]hept-6-yl)-6-(tetrahydro-pyran-4-yl)-pyrimidin-4-yl]-(4-trifluoromethyl-pyridin-2-yl)-amine] |
| 7.95 | CC(=O)N1CC(c2cc(Nc3cc(C(F)(F)F)ccn3)nc(N3CCC[C@H]3C)n2)C1 [Example 375, 1-{3-[2-((R)-2-Methyl-pyrrolidin-1-yl)-6-(4-trifluoromethyl-pyridin-2-ylamino)-pyrimidin-4-yl]-azetidin-1-yl}-ethanone] |
| 7.91 | CC(=O)N1CCC(c2cc(Nc3cc(C(F)(F)F)ccn3)nc(-c3cnn(C)c3)n2)CC1 [Example 424, 1-{4-[2-(1-Methyl-1H-pyrazol-4-yl)-6-(4-trifluoromethyl-pyridin-2-ylamino)-pyrimidin-4-yl]-piperidin-1-yl}-ethanone] |
| 8.76 | CC1CCCN1c1nc(Nc2cc(C(F)(F)F)ccn2)cc(C2CCN(C(=O)c3cn(C)cn3)C2)n1 (stereo not drawn) [Example 376, (1-Methyl-1H-imidazol-4-yl)-{3-[2-(2-methyl-pyrrolidin-1-yl)-6-(4-trifluoromethyl-pyridin-2-ylamino)-pyrimidin-4-yl]-pyrrolidin-1-yl}-methanone] |
| 8.28 | Cn1cc(-c2nc(Nc3cc(C(F)(F)F)ccn3)cc(C3CCN(CC4CCOCC4)C3)n2)cn1 (stereo not drawn) [Example 423, {2-(1-Methyl-1H-pyrazol-4-yl)-6-[1-(tetrahydro-pyran-4-ylmethyl)-pyrrolidin-3-yl]-pyrimidin-4-yl}-(4-trifluoromethyl-pyridin-2-yl)-amine] |
| 8.80 | CC1CCCN1c1nc(Nc2cc(C(F)(F)F)ccn2)cc(C2CCN(C(=O)Cn3ccnc3)C2)n1 (stereo not drawn) [Example 402, 2-Imidazol-1-yl-1-{3-[2-(2-methyl-pyrrolidin-1-yl)-6-(4-trifluoromethyl-pyridin-2-ylamino)-pyrimidin-4-yl]-pyrrolidin-1-yl}-ethanone] |
| 7.51 | C[C@@H]1CCCN1c1nc(Nc2cc(C(F)(F)F)ccn2)cc(C2CN(S(C)(=O)=O)C2)n1 [Example 374, [6-(1-Methanesulfonyl-azetidin-3-yl)-2-((R)-2-methyl-pyrrolidin-1-yl)-pyrimidin-4-yl]-(4-trifluoromethyl-pyridin-2-yl)-amine] |
| 6.49 | N#CC1(c2cc(Nc3cc(C(F)(F)F)ccn3)nc(Nc3cc(C(F)(F)F)ccn3)n2)CCOCC1 [Example 208, 4-[2,6-Bis-(4-trifluoro-methyl-pyridin-2-ylamino)-pyrimidin-4-yl]-tetrahydro-pyran-4-carbonitrile] |
| 7.65 | CCC1CN(c2nc(Nc3cc(C(F)(F)F)ccn3)cc(C3CCN(C)C3)n2)CCO1 (stereo not drawn) [Example 348, [2-(2-Ethyl-morpholin-4-yl)-6-(1-methyl-pyrrolidin-3-yl)-pyrimidin-4-yl]-(4-trifluoromethyl-pyridin-2-yl)-amine] |
| 6.76 | FC(F)(F)c1ccnc(Nc2cc(C3CCOCC3)nc(N3CC4CCC(C3)O4)n2)c1 [Example 296, [2-(8-Oxa-3-aza-bicyclo-[3.2.1]oct-3-yl)-6-(tetra-hydro-pyran-4-yl)-pyrimidin-4-yl]-(4-trifluoro-methyl-pyridin-2-yl)-amine] |
| 7.11 | C[C@@H]1CCCN1c1nc(Nc2cc(C(F)(F)F)ccn2)cc(C2(C#N)CCOCC2)n1 [Example 209, 4-[2-((R)-2-Methyl-pyrrolidin-1-yl)-6-(4-trifluoromethyl-pyridin-2-ylamino)-pyrimidin-4-yl]-tetrahydro-pyran-4-carbonitrile] |
